Measured values from PubChem BioAssay (NCI).
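Test compounds were applied to cells in 96-well plates for 48 hours at 5 doses. GI50 marks 50% less growth. The concentration for full growth arrest is given as TGI.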

Legend:
Experiment in all cases: growth of human tumour cells (NCI), 48 h
EKVX NSCLC = system: EKVX NSCLC
OVCAR-4 ovarian = system: OVCAR-4 ovarian
SF-295 CNS = system: SF-295 CNS
TK-10 renal = system: TK-10 renal
KM20L2 colon = system: KM20L2 colon
DLD-1 colon = system: DLD-1 colon
UACC-62 melanoma = system: UACC-62 melanoma
MALME-3M melanoma = system: MALME-3M melanoma
A549 NSCLC = system: A549 NSCLC
MDA-MB-231 breast = system: MDA-MB-231 breast

SMILES	TGI (EKVX NSCLC)	TGI (OVCAR-4 ovarian)	TGI (SF-295 CNS)	TGI (TK-10 renal)	TGI (KM20L2 colon)	TGI (DLD-1 colon)	TGI (UACC-62 melanoma)	TGI (MALME-3M melanoma)	TGI (A549 NSCLC)	TGI (MDA-MB-231 breast)	GI50 (EKVX NSCLC)	GI50 (OVCAR-4 ovarian)	GI50 (SF-295 CNS)	GI50 (MDA-MB-231 breast)	GI50 (TK-10 renal)	GI50 (UACC-62 melanoma)	GI50 (MALME-3M melanoma)	GI50 (A549 NSCLC)
O=C(O)C[C@@H](Cl)[C@H](NC(=O)OCc1ccccc1)C(=O)O	> 100 µM	> 100 µM	> 100 µM	> 100 µM	> 100 µM	> 100 µM	> 100 µM	> 100 µM	> 100 µM	–	–	–	–	–	–	–	–	–
CO[C@H]1C=CO[C@@]2(C)Oc3c(C)c(O)c4c(O)c(c(CN5CCN(C)CC5)c(O)c4c3C2=O)NC(=O)/C(C)=C\C=C[C@H](C)[C@H](O)C(C)[C@@H](O)C(C)[C@H](OC(C)=O)[C@@H]1C (stereo partly drawn)	> 100 µM	> 100 µM	> 100 µM	> 100 µM	–	–	> 100 µM	> 100 µM	> 100 µM	> 100 µM	–	–	–	–	–	–	–	–
CC(C)C12Cc3c(ccc4ccccc34)OC1(C)Oc1ccc3ccccc3c1C2 (stereo not drawn)	> 100 µM	> 100 µM	> 100 µM	> 100 µM	> 100 µM	> 100 µM	> 100 µM	> 100 µM	> 100 µM	–	–	–	–	–	–	–	–	–
CCC(=O)N1C(=O)OCC1C(C)C (stereo not drawn)	> 100 µM	> 100 µM	> 100 µM	> 100 µM	> 100 µM	> 100 µM	> 100 µM	> 100 µM	> 100 µM	–	–	–	–	–	–	–	–	–
NC(N)=NCC1CCCCCCN1 (stereo not drawn)	> 100 µM	> 100 µM	> 100 µM	> 100 µM	–	–	> 100 µM	> 100 µM	> 100 µM	> 100 µM	–	–	–	–	–	–	–	–
O=C(/C=C/c1ccc(Cl)cc1)c1ccccc(=O)c1O	18.3 µM	17.9 µM	16.3 µM	19.1 µM	–	–	6 µM	5.22 µM	> 39.2 µM	23.6 µM	–	–	–	–	–	–	–	–
CC(C)N(O)C(=N)c1ccccc1	> 100 µM	> 100 µM	> 100 µM	> 100 µM	> 100 µM	> 100 µM	–	–	> 100 µM	–	–	–	–	–	–	–	–	–
CCCCCCCCCCCCCCCC1=NCCN1	4.39 µM	6.89 µM	3.95 µM	3.39 µM	–	–	4.94 µM	6.46 µM	4 µM	4.68 µM	1.86 µM	2.38 µM	1.97 µM	2.23 µM	1.84 µM	2.3 µM	2.38 µM	2.06 µM
CN(C)CCCN(CCC1CCCCC1)CCC1CCCCC1	18.8 µM	27.7 µM	4.51 µM	8.92 µM	–	–	3.35 µM	3.77 µM	8.5 µM	3.97 µM	5.68 µM	7.41 µM	1.95 µM	1.62 µM	2.5 µM	1.79 µM	1.83 µM	2.69 µM
CSC(=NC#N)S/C=C/C(=O)c1ccccc1	> 100 µM	> 100 µM	> 100 µM	> 100 µM	–	–	> 100 µM	74.7 µM	> 100 µM	> 100 µM	86.4 µM	> 100 µM	30.5 µM	39.2 µM	34.5 µM	33.4 µM	31.2 µM	90.6 µM
C=C(CN1CCN(c2ccc(C(F)(F)F)cc2)CC1)c1ccc(C(=O)Nc2ccccc2N)cc1	> 100 µM	> 100 µM	> 100 µM	> 82.4 µM	–	–	> 100 µM	> 100 µM	45.5 µM	> 71.3 µM	12.3 µM	5.68 µM	10.8 µM	3.6 µM	21 µM	23 µM	19.3 µM	6.43 µM
O=C(CCl)NCCNc1nccc(Nc2ccc(S(=O)(=O)Nc3ccccn3)cc2)n1	12.8 µM	25.3 µM	7.66 µM	10.3 µM	–	–	4.24 µM	10.5 µM	13 µM	9.98 µM	3.15 µM	3.1 µM	2.39 µM	2.9 µM	3.04 µM	1.74 µM	2.3 µM	3.4 µM
CC1=C2CC(C)(C)/C=C\C(=O)/C(C)=C\C3=C[C@H](C)C[C@]3(O2)C1=O	6.15 µM	5.28 µM	22 µM	5 µM	–	–	3.37 µM	2.34 µM	15.5 µM	9.33 µM	–	–	–	–	–	–	–	–
O=C1/C=C/[C@@H](O)[C@@H]2C[C@@H](O)C[C@H]2/C=C/CCC[C@H](CCc2cccc3ccccc23)O1	14 µM	3.82 µM	10.1 µM	0.328 µM	–	–	12.9 µM	0.245 µM	13.2 µM	0.119 µM	0.0816 µM	0.0525 µM	0.0388 µM	0.0464 µM	0.0861 µM	0.038 µM	0.036 µM	0.0411 µM
CC(=O)OC1CCC2(C)C(CCC3C2CC(=O)C2(C)C3CC(N3CC3)C2C(C)=O)C1 (stereo not drawn)	40.9 µM	> 100 µM	51 µM	45.3 µM	–	–	36.5 µM	36.5 µM	> 100 µM	38.1 µM	–	–	–	–	–	–	–	–
N#CC(C(=O)C(=O)Nc1ccccc1)c1ccccc1 (stereo not drawn)	> 100 µM	–	> 100 µM	> 100 µM	> 100 µM	> 100 µM	> 100 µM	> 100 µM	> 100 µM	–	–	–	–	–	–	–	–	–
CCCCCCCCCCCCCCCCCc1nccn1CCOCCO	10.3 µg/mL	9.62 µg/mL	11 µg/mL	10.4 µg/mL	–	–	9.87 µg/mL	13.2 µg/mL	10.2 µg/mL	9.29 µg/mL	4.83 µg/mL	4.46 µg/mL	5.27 µg/mL	4.4 µg/mL	5.31 µg/mL	4.99 µg/mL	6.5 µg/mL	4.88 µg/mL
COC(OC)c1cc2c(cc1C=O)OCO2	> 100 µM	> 100 µM	–	> 100 µM	> 100 µM	> 100 µM	> 100 µM	96.5 µM	> 100 µM	–	–	–	–	–	–	–	–	–
CC/C=C\C[C@H](F)C/C=C1/C(=O)C=C[C@@H]1C/C=C\CCCC(=O)OC	12 µM	10.1 µM	8.3 µM	16.2 µM	–	–	2.1 µM	8.7 µM	10.5 µM	6.7 µM	5.17 µM	3.35 µM	2.24 µM	1.91 µM	7.09 µM	0.948 µM	2.03 µM	1.99 µM
